{
  "source": "patent US20040077591A1",
  "about": "“Histone deacetylase inhibitors for the treatment of multiple sclerosis, amyotrophic lateral sclerosis and Alzheimer's Disease” (The Brigham and Women's Hospital, Inc., priority 2002, published 2004)",
  "key": {"[1]": {"test_system": "ras transformed cells", "conditions": "cited from earlier work"}, "[2]": {"test_system": "EAE mice spinal cords", "assay": "DNA microarray analysis of EAE mice spinal cords", "format": "in vivo", "source_text": "(2) Modulation of genes involved in neuroprotection and immune regulation by TSA. a) Microarrays detect protective genes regulated by TSA in EAE mice spinal cords. The inventor pooled RNA from tissues of three animals in each group (TSA treated and vehicle-treated) for DNA microarray analysis. As shown (Table 3), intraperitoneal TSA led to the enhanced expression of mRNAs for the antioxidant glutathione peroxidase (Gpx1) and the neuroprotective insulin-like growth factor 2 (Igf2). […] Intraperitoneal TSA also led to decreased expression in EAE spinal cords of the chemokine receptor CCR6, immunoglobulin V(H)II, the vascular homeostasis-related phospholipase A2, and upregulation of the immunomodulatory factor interferon-α2 (Ifna2), the latter with known beneficial effects in MS patients.\nMicroarrays detect protective genes co-regulated by TSA in EAE mice spinal cords and spleens."}, "[3]": {"test_system": "mouse model", "conditions": "cited from earlier work"}, "[4]": {"test_system": "caspases 3 and 9", "assay": "Western analysis of caspases in CNS tissue of EAE mice", "format": "in vivo", "source_text": "FIGS. 7A-B—Densitometry of bands from western analysis of brain tissue proteins isolated from HDAC inhibitor-treated and vehicle-treated mice. […] Activated caspase 9 is decreased by oral sodium phenylbutyrate (SPB) and by intraperitoneal TSA. Both findings correlate with clinical improvement in these animal models.\nMechanisms of protection by HDAC inhibitors. (1) Decreased caspase activation leading to enhanced neuronal survival. […] Caspase 3 is known to be activated in rat EAE spinal cords (Ahmed et al., 2002), and correlates with retinal ganglion cell loss and optic neuritis-related disability (Meyer et al., 2001). Neuronal overexpression of the anti-caspase factor Bcl-2 ameliorates EAE (Offen et al., 2000). Caspase 3 also has the ability to modulate Bcl2 and activate upstream caspases triggered by Fas (Woo et al., 1999), an apoptotic pathway implicated in EAE (Sabelko et al., 1997). Finally, CNS activation of caspases has been implicated in the progression of Alzheimer's disease (AD) (Pompl et al., 2003). Thus, the inventor proposes that blockade of neuronal caspase activation is a mechanism by which HDAC inhibitors ameliorate neuronal death in these disorders (EAE, ALS and AD)."}, "[5]": {"test_system": "CNS tissue from EAE mice", "assay": "Quantitative RT-PCR on CNS tissue of EAE mice", "format": "in vivo", "protocol": "FIG. 8—Identification of gene expression changes induced by HDAC inhibitors in vivo, using reverse transcriptase polymerase chain reaction (RT-PCR). CNS and spleen tissue samples from EAE mice were used to isolate RNA. One step real time quantitative RT-PCR (QRT-PCR) was then performed in triplicate for each sample (n=3 per group of mice) with SYBR Green and an ABI Prism 7700 Sequence Detection System (PE Applied Biosystems, Foster City, Calif.).\nd) Quantitative RT-PCR (QRT-PCR) on CNS and spleen tissues from TSA-treated EAE mice detects numerous genes modulated by this HDAC inhibitor. […] QRT-PCR unveiled new CNS effects of TSA (FIG. 8), including upregulation of the neuronal trait genes sodium channel Nav1.2 and dopamine β hydroxylase (Dbh), and downregulation of the pro-apoptotic factors caspase 2 (casp2) and apoptosis inducing factor (Aif). In spleen tissues, QRT-PCR confirmed elevation of Ifna7 and Adipsin and downregulation of Igκ V22 mRNAs, and unveiled downregulation by TSA of multiple inflammatory factors, such as IL-8 receptor, IL-2 receptor, IL-12, and the costimulatory molecule CD28, from pathways implicated in MS (Glabinsk and Ransohoff, 2001; Dangond, 2002)."}},
  "data": [
    {"compound": "CC(/C=C/C(=O)NO)=C\\[C@@H](C)C(=O)c1ccc(N(C)C)cc1", "note": "[TSA, Trichostatin A]", "values": [
      {"measurement": "hyperacetylation", "setting": "[1]", "result": "induce hyperacetylation"},
      {"measurement": "morphology of ras transformed cells", "setting": "[1]", "result": "reversion of ras transformed cells to normal morphology"},
      {"measurement": "Fold Δ CNS, Paired box gene 4 (Pax4)", "setting": "[2]; Table 5, probe set AB010557, i.p. TSA, EAE mice spinal cord", "result": "−12.5", "unit": "fold"},
      {"measurement": "Fold Δ CNS, Axin", "setting": "[2]; Table 5, probe set AF009011, i.p. TSA, EAE mice spinal cord", "result": 4.9, "unit": "fold"},
      {"measurement": "Fold Δ CNS, DNA methyltransferase (Dnmt1)", "setting": "[2]; Table 5, probe set AF036008, i.p. TSA, EAE mice spinal cord", "result": "−8.8", "unit": "fold"},
      {"measurement": "Fold Δ CNS, Metaxin homolog", "setting": "[2]; Table 5, probe set AV108173, i.p. TSA, EAE mice spinal cord", "result": "−11.6", "unit": "fold"},
      {"measurement": "Fold Δ CNS, Thromboxane A2 receptor (Tbxa2r)", "setting": "[2]; Table 5, probe set D10849, i.p. TSA, EAE mice spinal cord", "result": "−5.2", "unit": "fold"},
      {"measurement": "Fold Δ CNS, Growth differentiation factor (Gdf9)", "setting": "[2]; Table 5, probe set L06444, i.p. TSA, EAE mice spinal cord", "result": 3.5, "unit": "fold"},
      {"measurement": "Fold Δ CNS, Neurofilament heavy (Nefh)", "setting": "[2]; Table 5, probe set M35131, i.p. TSA, EAE mice spinal cord", "result": 2.3, "unit": "fold"},
      {"measurement": "Fold Δ CNS, Snail homolog 1 (Snail1)", "setting": "[2]; Table 5, probe set M95604, i.p. TSA, EAE mice spinal cord", "result": 5.3, "unit": "fold"},
      {"measurement": "Fold Δ CNS, Dishevelled 2 (Dvl2)", "setting": "[2]; Table 5, probe set U24160, i.p. TSA, EAE mice spinal cord", "result": "−2.1", "unit": "fold"},
      {"measurement": "Fold Δ CNS, Rearranged in lymphoma (Frat1)", "setting": "[2]; Table 5, probe set U58974, i.p. TSA, EAE mice spinal cord", "result": 4.5, "unit": "fold"},
      {"measurement": "Fold Δ CNS, Immunoglobulin H and L variable", "setting": "[2]; Table 5, probe set U62386, i.p. TSA, EAE mice spinal cord", "result": "−2.1", "unit": "fold"},
      {"measurement": "Fold Δ CNS, Cyclin D-interacting Dmp1 (Dmtf1)", "setting": "[2]; Table 5, probe set U70017, i.p. TSA, EAE mice spinal cord", "result": 5.4, "unit": "fold"},
      {"measurement": "Fold Δ CNS, Neuronal PAS domain 1 (Npas1)", "setting": "[2]; Table 5, probe set U77967, i.p. TSA, EAE mice spinal cord", "result": 2, "unit": "fold"},
      {"measurement": "Fold Δ CNS, Phospholipase C-beta-1b (Picb1)", "setting": "[2]; Table 5, probe set U85714, i.p. TSA, EAE mice spinal cord", "result": 3.4, "unit": "fold"},
      {"measurement": "Fold Δ CNS, Glutathione peroxidase (Gpx1)", "setting": "[2]; Table 5, probe set X03920, i.p. TSA, EAE mice spinal cord", "result": 3, "unit": "fold"},
      {"measurement": "Fold Δ CNS, Immunoglobulin kappa chain (1gk-V20)", "setting": "[2]; Table 5, probe set X16678, i.p. TSA, EAE mice spinal cord", "result": "−3.3", "unit": "fold"},
      {"measurement": "Fold Δ CNS, Paired box gene 2 (Pax2)", "setting": "[2]; Table 5, probe set X55781, i.p. TSA, EAE mice spinal cord", "result": 7.1, "unit": "fold"},
      {"measurement": "Fold Δ CNS, Max binding protein ROX (Mnt)", "setting": "[2]; Table 5, probe set Y07609, i.p. TSA, EAE mice spinal cord", "result": "−2.2", "unit": "fold"},
      {"measurement": "Fold Change, Ten-m3", "setting": "[2]; probe set 92500, spinal cord, I.P. TSA vs vehicle-treated EAE mice", "result": "−5.4", "unit": "fold"},
      {"measurement": "Fold Change, Thymopoietin (Tmpo)", "setting": "[2]; probe set 92782, spinal cord, I.P. TSA vs vehicle-treated EAE mice", "result": "−6.4", "unit": "fold"},
      {"measurement": "Fold Change, Histidine ammonia lyase (Ha)", "setting": "[2]; probe set 92833, spinal cord, I.P. TSA vs vehicle-treated EAE mice", "result": 5.3, "unit": "fold"},
      {"measurement": "Fold Change, SH3 domain protein 2B", "setting": "[2]; probe set 93275, spinal cord, I.P. TSA vs vehicle-treated EAE mice", "result": 4.5, "unit": "fold"},
      {"measurement": "Fold Change, Hox-3.1", "setting": "[2]; probe set 93378, spinal cord, I.P. TSA vs vehicle-treated EAE mice", "result": "−5.3", "unit": "fold"},
      {"measurement": "Fold Change, Cdk inhibitor p19", "setting": "[2]; probe set 94521, spinal cord, I.P. TSA vs vehicle-treated EAE mice", "result": "−5.3", "unit": "fold"},
      {"measurement": "Fold Change, IFN-alpha-2 (1fna2)", "setting": "[2]; probe set 94717, spinal cord, I.P. TSA vs vehicle-treated EAE mice", "result": 5.6, "unit": "fold"},
      {"measurement": "Fold Change, Histocompatibility 2 D region locus 1", "setting": "[2]; probe set 97540, spinal cord, I.P. TSA vs vehicle-treated EAE mice", "result": 7.4, "unit": "fold"},
      {"measurement": "Fold Change, Murinoglobulin (Mug)", "setting": "[2]; probe set 97680, spinal cord, I.P. TSA vs vehicle-treated EAE mice", "result": "−7.2", "unit": "fold"},
      {"measurement": "Fold Change, Transferrin-like p97", "setting": "[2]; probe set 97970, spinal cord, I.P. TSA vs vehicle-treated EAE mice", "result": "−5.7", "unit": "fold"},
      {"measurement": "Fold Change, Insulin-like growth factor 2 (1gf2)", "setting": "[2]; probe set 98623, spinal cord, I.P. TSA vs vehicle-treated EAE mice", "result": 5.2, "unit": "fold"},
      {"measurement": "Fold Change, Phospholipase A2 (Pla2)", "setting": "[2]; probe set 99326, spinal cord, I.P. TSA vs vehicle-treated EAE mice", "result": "−6.4", "unit": "fold"},
      {"measurement": "Fold Change, CCR6", "setting": "[2]; probe set 99899, spinal cord, I.P. TSA vs vehicle-treated EAE mice", "result": "−7.3", "unit": "fold"},
      {"measurement": "Fold Change, Ig V(H)II", "setting": "[2]; probe set 100362, spinal cord, I.P. TSA vs vehicle-treated EAE mice", "result": "−4.9", "unit": "fold"},
      {"measurement": "Fold Change, Glutathione peroxidase (Gpx1)", "setting": "[2]; probe set 101676, spinal cord, I.P. TSA vs vehicle-treated EAE mice", "result": 6.9, "unit": "fold"},
      {"measurement": "Fold Change, Mapkapk5", "setting": "[2]; probe set 104364, spinal cord, I.P. TSA vs vehicle-treated EAE mice", "result": "−6.5", "unit": "fold"},
      {"measurement": "immunosuppression", "setting": "[3]", "result": "induces immunosuppression"},
      {"measurement": "Activated caspase 9, densitometry of western bands, brain tissue", "setting": "[4]; intraperitoneal TSA vs vehicle-treated mice", "result": "decreased"},
      {"measurement": "activation of caspases 3 and 9 in CNS tissue", "setting": "[4]; intraperitoneal TSA, MS (EAE) mice, western analysis", "result": "decreased activation of caspases 3 and 9"},
      {"measurement": "fold change of key genes altered, QRT-PCR", "setting": "[5]; CNS and spleen samples, vs vehicle-treated EAE animals, n=3 per group", "result": "> 1.5", "unit": "fold"},
      {"measurement": "Gpx1 mRNA by QRT-PCR", "setting": "[5]; CNS, TSA-treated EAE mice", "result": "elevated"},
      {"measurement": "Ifna2 mRNA by QRT-PCR", "setting": "[5]; CNS, TSA-treated EAE mice", "result": "elevated"},
      {"measurement": "Mug mRNA by QRT-PCR", "setting": "[5]; CNS, TSA-treated EAE mice", "result": "downregulated"},
      {"measurement": "Tmpo mRNA by QRT-PCR", "setting": "[5]; CNS, TSA-treated EAE mice", "result": "downregulated"},
      {"measurement": "apoptosis inducing factor (Aif) mRNA by QRT-PCR", "setting": "[5]; CNS, TSA-treated EAE mice", "result": "downregulation"},
      {"measurement": "caspase 2 (casp2) mRNA by QRT-PCR", "setting": "[5]; CNS, TSA-treated EAE mice", "result": "downregulation"},
      {"measurement": "dopamine β hydroxylase (Dbh) mRNA by QRT-PCR", "setting": "[5]; CNS, TSA-treated EAE mice", "result": "upregulation"},
      {"measurement": "sodium channel Nav1.2 mRNA by QRT-PCR", "setting": "[5]; CNS, TSA-treated EAE mice", "result": "upregulation"},
      {"measurement": "thromboxane A2 receptor (Tbxa2r) mRNA by QRT-PCR", "setting": "[5]; CNS, TSA-treated EAE mice", "result": "downregulated"}
    ]}
  ]
}
